In brackets after ≈: the same amount, converted by molar mass. Several values for one entry are separate records, joined by “and”; a condition that tells them apart may be missing. Equal entries are not always repeated.
Legend:
Experiment in all cases: ≥ marks a high value that may be exact or a test limit, other limits are often not marked, values filed in µg/mL are converted to µM
Bacillus megaterium Bm11 = tested on: Bacillus megaterium Bm11
Candida albicans = tested on: Candida albicans
Citrobacter freundii = tested on: Citrobacter freundii
Enterococcus faecium = tested on: Enterococcus faecium
Escherichia coli ML-35 = tested on: Escherichia coli ML-35
Escherichia coli = tested on: Escherichia coli
Klebsiella pneumoniae = tested on: Klebsiella pneumoniae
Micrococcus luteus = tested on: Micrococcus luteus
[1] = tested on: Pseudomonas aeruginosa ATCC 27853
Pseudomonas aeruginosa = tested on: Pseudomonas aeruginosa
[2] = tested on: Salmonella enterica subsp. enterica serovar Typhimurium ATCC 14028
[3] = tested on: Staphylococcus aureus 710A
[4] = tested on: Staphylococcus aureus LT1334
[5] = tested on: Staphylococcus aureus LT1338
Staphylococcus aureus = tested on: Staphylococcus aureus
[6] = tested on: Staphylococcus epidermidis LT1324
[7] = tested on: Staphylococcus haemolyticus
[8] = tested on: Stenotrophomonas maltophilia
[9] = tested on: Candida albicans ATCC 10231
Candida tropicalis = tested on: Candida tropicalis
Escherichia coli D21 = tested on: Escherichia coli D21
Mammaliicoccus lentus = tested on: Mammaliicoccus lentus
[10] = tested on: Phytophthora nicotianae PG344
[11] = tested on: Pseudomonas syringae pv. tabaci
[12] = tested on: Yersinia pseudotuberculosis YPIII
[13] = tested on: Acinetobacter baumannii ATCC 19606
[14] = tested on: Bacillus cereus ATCC 11778
[15] = tested on: Bacillus megaterium ATCC 10778
[16] = tested on: Bacillus subtilis CCT 2471
Bacillus thuringiensis = tested on: Bacillus thuringiensis
[17] = tested on: Candida albicans ATCC 18804
Candida albicans MDM8 = tested on: Candida albicans MDM8
[18] = tested on: Candida tropicalis IOC 4560
Escherichia coli AIG 221 = tested on: Escherichia coli AIG 221
Escherichia coli AIG 222 = tested on: Escherichia coli AIG 222
[19] = tested on: Escherichia coli ATCC 10536
[20] = tested on: Escherichia coli ATCC 11775
Escherichia coli BL21 = tested on: Escherichia coli BL21
[21] = tested on: Escherichia coli CCT 1371
[22] = tested on: Escherichia coli KCTC 1682
Escherichia coli SBS 363 = tested on: Escherichia coli SBS 363
[23] = tested on: Klebsiella aerogenes ATCC 13048
[24] = tested on: Klebsiella oxytoca CIP 79.32
[25] = tested on: Klebsiella pneumoniae ATCC 13883
Micrococcus luteus A270 = tested on: Micrococcus luteus A270
Proteus mirabilis = tested on: Proteus mirabilis
[26] = tested on: Pseudomonas aeruginosa ATCC 15442
[27] = tested on: Pseudomonas aeruginosa ATCC BAA-427
[28] = tested on: Pseudomonas aeruginosa CCARM 2095
[29] = tested on: Pseudomonas aeruginosa KCTC 1637
[30] = tested on: Pseudomonas aeruginosa NCIB 10421
[31] = tested on: Pseudomonas aeruginosa PAO1
[32] = tested on: Salmonella typhimurium KCTC 1926
[33] = tested on: Serratia marcescens ATCC 4112
[34] = tested on: Staphylococcus aureus ATCC 12600
[35] = tested on: Staphylococcus aureus ATCC 25293
[36] = tested on: Staphylococcus aureus ATCC 25923
[37] = tested on: Staphylococcus aureus ATCC 6538
[38] = tested on: Staphylococcus aureus CCARM 3001
[39] = tested on: Staphylococcus aureus CCARM 3543
[40] = tested on: Staphylococcus aureus KCTC 1621
[41] = tested on: Staphylococcus epidermidis ATCC 12228
[42] = tested on: Staphylococcus epidermidis KCTC 1917
[43] = tested on: Staphylococcus saprophyticus

CC[C@H](C)[C@H](NC(=O)[C@@H](NC(=O)[C@H](CCCN=C(N)N)NC(=O)[C@H](C)NC(=O)[C@H](CC(C)C)NC(=O)[C@H](CCCCN)NC(=O)[C@H](CCCN=C(N)N)NC(=O)[C@H](C)NC(=O)[C@H](CC(C)C)NC(=O)[C@H](CCCN=C(N)N)NC(=O)CNC(=O)[C@H](Cc1ccccc1)NC(=O)[C@H](CCCCN)NC(=O)[C@H](CO)NC(=O)[C@H](CC(C)C)NC(=O)[C@H](CC(C)C)NC(=O)CN)C(C)C)C(=O)N1CCC[C@H]1C(=O)N[C@@H](CCCCN)C(=O)N[C@H](C(N)=O)C(C)C [GLLSKFGRLARKLARVIPKV]
MIC (Bacillus megaterium Bm11): 2 µM (≈ 4.44 µg/mL)
MIC (Candida albicans): > 4 µM
MIC (Citrobacter freundii): 2 µM (≈ 4.44 µg/mL)
MIC (Enterococcus faecium): 1.41 µM (≈ 3.14 µg/mL)
MIC (Escherichia coli ML-35): 1 µM (≈ 2.22 µg/mL)
MIC (Escherichia coli): 1.41 µM (≈ 3.14 µg/mL)
MIC (Klebsiella pneumoniae): 1 µM (≈ 2.22 µg/mL)
MIC (Micrococcus luteus): 1 µM (≈ 2.22 µg/mL)
MIC [1]: 4 µM (≈ 8.89 µg/mL)
MIC (Pseudomonas aeruginosa): 2 µM (≈ 4.44 µg/mL)
MIC [2]: 5.66 µM (≈ 12.6 µg/mL)
MIC [3]: 5.66 µM (≈ 12.6 µg/mL)
MIC [4]: 3 µM (≈ 6.67 µg/mL)
MIC [5]: 4 µM (≈ 8.89 µg/mL)
MIC (Staphylococcus aureus): 2 µM and 2.45 µM
MIC [6]: 1.5 µM (≈ 3.33 µg/mL)
MIC [7]: 1.5 µM (≈ 3.33 µg/mL)
MIC [8]: 1.22 µM (≈ 2.72 µg/mL)

CC(C)C[C@H](NC(=O)[C@H](C)NC(=O)CN)C(=O)N[C@@H](CCCN=C(N)N)C(=O)NCC(=O)N[C@H]1CSSC[C@@H](C(=O)N[C@@H](CCCCN)C(N)=O)NC(=O)[C@@H]2CCCN2C(=O)[C@H](CCCCN)NC(=O)[C@@H]2CCCN2C(=O)[C@@H]2CCCN2C(=O)[C@H](Cc2ccc(O)cc2)NC(=O)[C@H](CO)NC(=O)[C@H](CCCCN)NC(=O)[C@H]([C@@H](C)O)NC(=O)[C@H](Cc2c[nH]c3ccccc23)NC1=O [GALRGCWTKSYPPKPCK]
MIC (Bacillus megaterium Bm11): 3 µM (≈ 5.67 µg/mL)
MIC [9]: 22 µM (≈ 41.6 µg/mL)
MIC (Candida tropicalis): 14 µM (≈ 26.5 µg/mL)
MIC (Escherichia coli D21): 30 µM (≈ 56.7 µg/mL)
MIC (Mammaliicoccus lentus): 10 µM (≈ 18.9 µg/mL)
MIC (Micrococcus luteus): 8 µM (≈ 15.1 µg/mL)
MIC [10]: 16 µM (≈ 30.2 µg/mL)
MIC [11]: 16 µM (≈ 30.2 µg/mL)
MIC [12]: 5 µM (≈ 9.45 µg/mL)

CC[C@H](C)[C@H](N)C(=O)N[C@@H](CC(C)C)C(=O)NCC(=O)N[C@@H](CCCCN)C(=O)N[C@H](C(=O)N[C@@H](Cc1c[nH]c2ccccc12)C(=O)N[C@@H](CCC(=O)O)C(=O)NCC(=O)N[C@H](C(=O)N[C@@H](CCCCN)C(=O)N[C@@H](CO)C(=O)N[C@@H](CC(C)C)C(=O)N[C@@H](Cc1ccccc1)C(N)=O)[C@@H](C)CC)[C@@H](C)CC [ILGKIWEGIKSLF]
MIC [13]: 8 µM (≈ 12 µg/mL)
MIC [14]: ≥ 66.5 µM
MIC [15]: 0.78 µM (≈ 1.17 µg/mL)
MIC [16]: 6.65 µM (≈ 9.99 µg/mL)
MIC (Bacillus thuringiensis): 16.6 µM (≈ 25 µg/mL)
MIC [17]: 12.5 µM (≈ 18.8 µg/mL)
MIC (Candida albicans MDM8): 3.13 µM (≈ 4.7 µg/mL)
MIC [18]: 1.56 µM (≈ 2.34 µg/mL)
MIC (Escherichia coli AIG 221): ≥ 32 µM
MIC (Escherichia coli AIG 222): 16 µM (≈ 24 µg/mL)
MIC [19]: 3 µM (≈ 4.51 µg/mL)
MIC [20]: ≥ 32 µM
MIC (Escherichia coli BL21): 4 µM (≈ 6.01 µg/mL)
MIC [21]: 3.32 µM (≈ 5 µg/mL)
MIC [22]: 4 µM (≈ 6.01 µg/mL)
MIC (Escherichia coli SBS 363): 1.56 µM (≈ 2.34 µg/mL)
MIC [23]: ≥ 66.5 µM
MIC [24]: 16 µM (≈ 24 µg/mL)
MIC [25]: ≥ 64 µM
MIC (Micrococcus luteus A270): 0.78 µM (≈ 1.17 µg/mL)
MIC (Proteus mirabilis): ≥ 133 µM
MIC [26]: ≥ 133 µM
MIC [1]: 66.5 µM (≈ 99.9 µg/mL)
MIC [27]: 4 µM (≈ 6.01 µg/mL)
MIC [28]: 1 µM (≈ 1.5 µg/mL)
MIC [29]: 2 µM (≈ 3.01 µg/mL)
MIC [30]: ≥ 50 µM
MIC [31]: > 128 µM
MIC [2]: 66.5 µM (≈ 99.9 µg/mL)
MIC [32]: 2 µM (≈ 3.01 µg/mL)
MIC [33]: 0.36 µM (≈ 0.541 µg/mL)
MIC [34]: 8 µM (≈ 12 µg/mL)
MIC [35]: 0.665 µM (≈ 0.999 µg/mL)
MIC [36]: 2 µM (≈ 3.01 µg/mL)
MIC [37]: 3.32 µM (≈ 5 µg/mL)
MIC [38]: 1 µM (≈ 1.5 µg/mL)
MIC [39]: 1 µM (≈ 1.5 µg/mL)
MIC [40]: 2 µM (≈ 3.01 µg/mL)
MIC [41]: 8 µM (≈ 12 µg/mL)
MIC [42]: 2 µM (≈ 3.01 µg/mL)
MIC [43]: 0.665 µM (≈ 0.999 µg/mL)
